# From patent US20060069132A1, “Azolecarboxamide herbicides” (priority 2004, published 2006)
# Where two headings read alike, the source gives them in different places.
# What was measured:
# Test in all cases: Test C pre-/postemergence herbicide test
# bermudagrass = type: in vivo, Cynodon dactylon; conditions: for pest or weed control at 62 g/ha / Plant response rating, Bermudagrass / Plant response rating (0 = no effect, 100 = complete control), Bermudagrass: preemergence; for pest or weed control at 125 g/ha / Plant response rating (0 = no effect, 100 = complete control), Bermudagrass: 125 g ai/ha; for pest or weed control at 125 g/ha: scale 0 (no effect) to 100 (complete control); for pest or weed control at 500 g/ha: Preemergence, read-out: Bermudagrass plant response rating
# Outline: (§1)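 Greenhouse-grown plants were evaluated visually 12 to 14 days after treatment, with 100 meaning complete control and 0 no effect. Application was preemergence, or postemergence at 2 to 18 cm.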
# Surinam grass = type: in vivo, Urochloa decumbens; conditions: for pest or weed control at 62 g/ha / Plant response rating, Surinam Grass / Plant response rating (0 = no effect, 100 = complete control), Surinam Grass: preemergence
# Text: Seeds of plant species selected from bermudagrass (Cynodon dactylon (L.) Pers.), Surinam grass (Urochloa decumbens (Staph) R. D. Webster, previously named Brachiaria decumbens Stapf), cocklebur (Xanthium strumarium L.), corn (Zea mays L.), large crabgrass (Digitaria sanguinalis (L.) Scop.), woolly cupgrass (Eriochloa villosa (Thunb.) Kunth), giant foxtail (Setaria faberi Herrm.), goosegrass (Eleusine indica (L.) Gaertn.), johnsongrass (Sorghum halepense (L.) Pers.), kochia (Kochia scoparia (L.) Schrad.), lambsquarters (Chenopodium album L.), morningglory (Ipomoea coccinea L.), eastern black nightshade (Solanum ptycanthum Dunal), yellow nutsedge (Cyperus esculentus L.), pigweed (Amaranthus retroflexus L.), common ragweed (Ambrosia elatior L.), soybean (Glycine max (L.) Merr.), common (oilseed) sunflower (Helianthus annuus L.) and velvetleaf (Abutilon theophrasti Medik.) were planted and treated preemergence with test chemicals formulated in a non-phytotoxic solvent mixture which included a surfactant.
# At the same time, plants selected from these crop and weed species and also winter barley (Hordeum vulgare L.), blackgrass (Alopecurus myosuroides Huds.), canarygrass (Phalaris minor Retz.), chickweed (Stellaria media (L.) Vill.), downy bromegrass (Bromus tectorum L.), green foxtail (Setaria viridis (L.) Beauv.), Italian ryegrass (Lolium multiflorum Lam.), wheat (Triticum aestivum L.), wild oat (Avenafatua L.) and windgrass (Apera spica-venti (L.) Beauv.) were treated with postemergence applications of some of the test chemicals formulated in the same manner. Plants ranged in height from 2 to 18 cm (1- to 4-leaf stage) for postemergence treatments. Plant species in the flooded paddy test consisted of rice (Oryza sativa), smallflower umbrella sedge (Cyperus difformis L.), ducksalad (Heteranthera limosa (Sw.) Willd.) and barnyardgrass (Echinochloa crus-galli (L.) Beauv.) grown to the 2-leaf stage for testing. Treated plants and controls were maintained in a greenhouse for 12 to 14 days, after which time all species were compared to controls and visually evaluated. Plant response ratings, summarized in Table C, are based on a scale of 0 to 100 where 0 is no effect and 100 is complete control. A dash (-) response means no test result.
# woolly cupgrass = type: in vivo, Eriochloa villosa; conditions: for pest or weed control at 62 g/ha / Plant response rating, Cupgrass, Woolly / Plant response rating (0 = no effect, 100 = complete control), Cupgrass, Woolly: preemergence; for pest or weed control at 125 g/ha / Plant response rating (0 = no effect, 100 = complete control), Cupgrass, Woolly: 125 g ai/ha; for pest or weed control at 125 g/ha: scale 0 (no effect) to 100 (complete control)
# Outline: as §1
# johnsongrass = type: in vivo, Sorghum halepense; conditions: for pest or weed control at 62 g/ha / Plant response rating, Johnsongrass / Plant response rating (0 = no effect, 100 = complete control), Johnsongrass: preemergence; for pest or weed control at 125 g/ha / Plant response rating (0 = no effect, 100 = complete control), Johnsongrass: 125 g ai/ha; for pest or weed control at 125 g/ha: scale 0 (no effect) to 100 (complete control)
# Outline: as §1
# morningglory = type: in vivo, Ipomoea coccinea; set-up: key to Plant response rating, Morningglory: 0 = no effect, 100 = complete control; conditions: for pest or weed control at 62 g/ha / Plant response rating, Morningglory / Plant response rating (0 = no effect, 100 = complete control), Morningglory: preemergence; for pest or weed control at 125 g/ha / Plant response rating (0 = no effect, 100 = complete control), Morningglory: 125 g ai/ha; for pest or weed control at 125 g/ha: scale 0 (no effect) to 100 (complete control)
# Outline: as §1
# [1] = Cynodon dactylon, pre-emergence, 312 h, 62 g ai/ha, scale 0 to 100, 0 no effect, 100 complete control, read-out: Plant response rating, Bermudagrass
# [2] = Cynodon dactylon, pre-emergence, 312 h, visual, 12 to 14 days, read-out: Plant response rating, Bermudagrass
# [3] = Cynodon dactylon, pre-emergence, 312 h, 500 g ai/ha, scale 0 to 100, 0 no effect, 100 complete control
# [4] = Preemergence, 500 g ai/ha, scale 0 to 100, 0 no effect, 100 complete control
# [5] = Urochloa decumbens, pre-emergence, 312 h, 62 g ai/ha, scale 0 to 100, read-out: Plant response rating, Surinam Grass
# [6] = Eriochloa villosa, pre-emergence, 312 h, 62 g ai/ha, scale 0 to 100, read-out: Plant response rating, Cupgrass, Woolly
# [7] = Eriochloa villosa, pre-emergence, 312 h, visual, 12 to 14 days, read-out: Plant response rating, Cupgrass, Woolly
# [8] = Sorghum halepense, pre-emergence, 62 g ai/ha, scale 0 to 100, read-out: Plant response rating, Johnsongrass
# [9] = Sorghum halepense, pre-emergence, visual, 12 to 14 days, read-out: Plant response rating, Johnsongrass
# [10] = Ipomoea, pre-emergence, 62 g ai/ha, scale 0 to 100, read-out: Plant response rating, Morningglory
# [11] = Ipomoea, pre-emergence, visual, 12 to 14 days, read-out: Plant response rating, Morningglory
# [12] = 62 g ai/ha, scale 0 to 100, 0 no effect, 100 complete control
# [13] = 500 g ai/ha, scale 0 to 100 (0 no effect, 100 complete control), visual, 12 to 14 days
SMILES,pest or weed control at 62 g/ha (bermudagrass; [1]),pest or weed control at 125 g/ha (bermudagrass; [2]),pest or weed control at 500 g/ha (bermudagrass; [3]),pest or weed control at 62 g/ha (Surinam grass; [5]),pest or weed control at 62 g/ha (woolly cupgrass; [6]),pest or weed control at 125 g/ha (woolly cupgrass; [7]),pest or weed control at 62 g/ha (johnsongrass; [8]),pest or weed control at 125 g/ha (johnsongrass; [9]),pest or weed control at 62 g/ha (morningglory; [10]),pest or weed control at 125 g/ha (morningglory; [11]),"Plant response rating, Bermudagrass (bermudagrass; [12])","Plant response rating (0 = no effect, 100 = complete control), Bermudagrass (bermudagrass)","Plant response rating, Bermudagrass (bermudagrass; 250 g ai/ha, scale 0-100)","Plant response rating, Bermudagrass (bermudagrass; [13])","Plant response rating, Surinam Grass (Surinam grass; 62 g ai/ha, scale 0 to 100)","Plant response rating (0 = no effect, 100 = complete control), Surinam Grass (Surinam grass; 125 g ai/ha)","Plant response rating, Surinam Grass (Surinam grass; [13])","Plant response rating, Cupgrass, Woolly (woolly cupgrass; 62 g ai/ha, scale 0 to 100)","Plant response rating (0 = no effect, 100 = complete control), Cupgrass, Woolly (woolly cupgrass)","Plant response rating, Cupgrass, Woolly (woolly cupgrass; 250 g ai/ha, scale 0-100)",other results
"CCn1nc(C(C)(C)C)cc1C(=O)Nc1cc(C(=O)N(C)C)ccn1 [Compound 156, 2-[[[3-(1,1-dimethylethyl)-1-ethyl-1H-pyrazol-5-yl]carbonyl]amino]-N,N-dimethyl-4-pyridinecarboxamide]",88%,93%,95%,75%,33%,70%,80%,85%,8%,60%,,,,,,,,,,,"pest or weed control at 16 g/ha (bermudagrass; Cynodon dactylon, pre-emergence, 312 h, 16 g ai/ha, scale 0 to 100, 0 no effect, 100 complete control, last section of Table C (species set of preemergence test), read-out: Plant response rating, Bermudagrass): 0%; pest or weed control at 31 g/ha (bermudagrass; Cynodon dactylon, pre-emergence, 312 h, 31 g ai/ha, scale 0 to 100, 0 no effect, 100 complete control, last section of Table C (species set of preemergence test), read-out: Plant response rating, Bermudagrass): 60%; pest or weed control at 250 g/ha (bermudagrass; Cynodon dactylon, pre-emergence, 312 h, 250 g ai/ha, scale 0 to 100 (0 no effect, 100 complete control), visual, 12 to 14 days, read-out: Plant response rating, Bermudagrass): 95%; Surinam Grass plant response rating (Surinam grass; [4]): 95; pest or weed control at 125 g/ha (Surinam grass; Urochloa decumbens, pre-emergence, 312 h, 125 g ai/ha, scale 0 (no effect) to 100 (complete control), visual, 12 to 14 days, read-out: Plant response rating, Surinam Grass): 88%; pest or weed control at 250 g/ha (woolly cupgrass; Eriochloa villosa, pre-emergence, 312 h, 250 g ai/ha, scale 0 to 100 (0 no effect, 100 complete control), visual, 12 to 14 days, read-out: Plant response rating, Cupgrass, Woolly): 80%; Cupgrass, Woolly plant response rating (woolly cupgrass; [4]): 90; Johnsongrass plant response rating (johnsongrass; [4]): 100; Morningglory plant response rating (morningglory; [4]): 100"
"CCNC(=O)c1cccc(NC(=O)c2nn(C(C)(C)C)cc2Br)c1 [Compound 221, 4-bromo-1-(1,1-dimethylethyl)-N-[3-[(ethylamino)carbonyl]phenyl]-1H-pyrazole-3-carboxamide]",0%,10%,85%,0%,0%,0%,0%,0%,0%,0%,,,,,,,,,,,"pest or weed control at 250 g/ha (bermudagrass; Cynodon dactylon, pre-emergence, 312 h, 250 g ai/ha, scale 0-100, read-out: Plant response rating, Bermudagrass): 85%; pest or weed control at 250 g/ha (Surinam grass; Urochloa decumbens, pre-emergence, 312 h, 250 g ai/ha, scale 0-100, read-out: Plant response rating, Surinam Grass): 10%; pest or weed control at 500 g/ha (Surinam grass; Urochloa decumbens, pre-emergence, 312 h, 500 g ai/ha, scale 0 to 100 (0 no effect, 100 complete control), visual, 12 to 14 days, read-out: Plant response rating, Surinam Grass): 45%; pest or weed control at 250 g/ha (woolly cupgrass; Eriochloa villosa, pre-emergence, 312 h, 250 g ai/ha, scale 0-100, read-out: Plant response rating, Cupgrass, Woolly): 0%; pest or weed control at 500 g/ha (woolly cupgrass; Eriochloa villosa, pre-emergence, 312 h, 500 g ai/ha, scale 0 to 100 (0 no effect, 100 complete control), visual, 12 to 14 days, read-out: Plant response rating, Cupgrass, Woolly): 10%; pest or weed control at 250 g/ha (johnsongrass; Sorghum halepense, pre-emergence, 250 g ai/ha, scale 0-100, read-out: Plant response rating, Johnsongrass): 10%; pest or weed control at 500 g/ha (johnsongrass; Sorghum halepense, pre-emergence, 500 g ai/ha, scale 0 to 100 (0 no effect, 100 complete control), visual, 12 to 14 days, read-out: Plant response rating, Johnsongrass): 80%; pest or weed control at 250 g/ha (morningglory; Ipomoea, pre-emergence, 250 g ai/ha, scale 0-100, read-out: Plant response rating, Morningglory): 0%; pest or weed control at 500 g/ha (morningglory; Ipomoea, pre-emergence, 500 g ai/ha, scale 0 to 100 (0 no effect, 100 complete control), visual, 12 to 14 days, read-out: Plant response rating, Morningglory): 0%"
Cc1nn(C(C)(C)C)nc1C(=O)Nc1cccc(C(=S)N(C)C)c1 [Compound 419],,,,,,,,,,,100,100,100,100,0,45,100,0,15,45,"Plant response rating, Cupgrass, Woolly (woolly cupgrass; [13]): 65; Plant response rating, Johnsongrass (johnsongrass; 62 g ai/ha, scale 0 to 100): 100; Plant response rating (0 = no effect, 100 = complete control), Johnsongrass (johnsongrass): 100; Plant response rating, Johnsongrass (johnsongrass; 250 g ai/ha, scale 0-100): 100; Plant response rating, Johnsongrass (johnsongrass; [13]): 100; Plant response rating, Morningglory (morningglory; 62 g ai/ha, scale 0 to 100): 15; Plant response rating (0 = no effect, 100 = complete control), Morningglory (morningglory): 25; Plant response rating, Morningglory (morningglory; [13]): 100"
CCNC(=S)c1cccc(NC(=O)c2nn(C(C)(C)C)nc2C)c1 [Compound 420],,,,,,,,,,,100,100,100,100,10,20,95,0,10,20,"Plant response rating, Cupgrass, Woolly (woolly cupgrass; [13]): 65; Plant response rating, Johnsongrass (johnsongrass; 62 g ai/ha, scale 0 to 100): 100; Plant response rating (0 = no effect, 100 = complete control), Johnsongrass (johnsongrass): 100; Plant response rating, Johnsongrass (johnsongrass; 250 g ai/ha, scale 0-100): 100; Plant response rating, Johnsongrass (johnsongrass; [13]): 100; Plant response rating, Morningglory (morningglory; 62 g ai/ha, scale 0 to 100): 10; Plant response rating (0 = no effect, 100 = complete control), Morningglory (morningglory): 55; Plant response rating, Morningglory (morningglory; [13]): 100"
